Values after ≈ are worked out from the molar mass of the structure shown. Read-outs that look alike come from different tables or passages of the source.
Experiments:
Assay in all cases: In vitro MIC, broth dilution
Assay type in all cases: cell-based
[1] = system: E. coli GC 4559; details: Escherichia coli, GC4559
[2] = system: E. coli GC 4560; details: Escherichia coli, GC4560
[3] = system: E. coli GC 3226; details: Escherichia coli, GC3226
[4] = system: S. marcescens GC 4077; details: Serratia marcescens, GC4077
[5] = system: C. albicans GC 3066; details: Candida albicans, GC3066
[6] = system: M. morganii GC 4531; details: Morganella morganii, GC4531
[7] = system: K. pneumoniae GC 4534; details: Klebsiella pneumoniae, GC4534
[8] = system: E. cloacae GC 3783; details: Enterobacter cloacae, GC3783
[9] = system: P. aeruginosa GC 4532; details: Pseudomonas aeruginosa, GC4532
[10] = system: CNS GC 4537
Procedure: (§1) The minimum inhibitory concentration (MIC), the lowest concentration of the antibiotic which inhibits growth of the test organism, is determined by the broth dilution method using Muller-Hinton II […] (Baltimore Biological Laboratories) following the recommendations of National Committee for Clinical Laboratory Standards. [Reference for the Methods for dilution antimicrobial susceptibility tests for bacteria that grow aerobically: National Committee for Clinical Laboratory Standards, 1997. Approved standard M7-A National Committee for Clinical Laboratory Standards, Wayne, Pa.] An inoculum level of 5×10^5 CFU/ml, and a range of antibiotic concentrations (64-0.06 μg/ml) is used. The MIC is determined after the microtiter plates are incubated for 18 hours at 35° C. in an ambient air incubator. The test organisms comprise a spectrum of gram-positive bacteria including Staphylococcus sp., Streptococcus sp. and Enterococcus sp. These organisms include recent clinical isolates that are resistant to methicillin, penicillin and vancomycin.

[11] = system: CNS GC 4538
Procedure: as §1

[12] = system: CNS GC 4547
Procedure: as §1

[13] = system: E. faecalis GC 2242; details: Enterococcus faecalis, GC2242
Procedure: as §1

[14] = system: E. faecalis GC 4555; details: Enterococcus faecalis, GC4555
Procedure: as §1

[15] = system: E. faecalis GC 842; details: Enterococcus faecalis, GC842
Procedure: as §1

[16] = system: S. aureus GC 1131; details: Staphylococcus aureus, GC1131
Procedure: as §1

[17] = system: S. aureus GC 2216; details: Staphylococcus aureus, GC2216
Procedure: as §1

[18] = system: S. aureus GC 4536; details: Staphylococcus aureus, GC4536
Procedure: as §1

[19] = system: E. coli GC 2203; details: Escherichia coli, GC2203
[20] = system: P. aeruginosa GC 2214; details: Pseudomonas aeruginosa, GC2214
[21] = S. marcescens GC 4077, read-out: MIC
[22] = C. albicans GC 3066, read-out: MIC
[23] = M. morganii GC 4531, read-out: MIC
[24] = K. pneumoniae GC 4534, read-out: MIC
[25] = E. cloacae GC 3783, read-out: MIC
[26] = P. aeruginosa GC 4532, read-out: MIC
[27] = E. faecalis GC 2242, read-out: MIC
[28] = E. faecalis GC 4555, read-out: MIC
[29] = E. faecalis GC 842, read-out: MIC
[30] = S. aureus GC 1131, read-out: MIC
[31] = S. aureus GC 2216, read-out: MIC
[32] = S. aureus GC 4536, read-out: MIC
[33] = P. aeruginosa GC 2214, read-out: MIC

Structure (SMILES)	MIC ([1]; E. coli GC 4559, read-out: MIC)	MIC ([2]; E. coli GC 4560, read-out: MIC)	MIC ([3]; E. coli GC 3226, read-out: MIC)	MIC [4, 21]	MIC [5, 22]	MIC [6, 23]	MIC [7, 24]	MIC [8, 25]	MIC [9, 26]	MIC ([10]; CNS GC 4537, read-out: MIC)	MIC ([11]; CNS GC 4538, read-out: MIC)	MIC ([12]; CNS GC 4547, read-out: MIC)	MIC [13, 27]	MIC [14, 28]	MIC [15, 29]	MIC [16, 30]	MIC [17, 31]	MIC [18, 32]	MIC ([19]; E. coli GC 2203, read-out: MIC)	MIC [20, 33]	other results
COc1ccc(Cn2c(=O)ccn([C@@H]3OC([C@@H](O)[C@H](NCCCNC(=O)C(NC(=O)OCc4ccccc4)[C@@H](O)C(C)C)C(=O)OC(C)(C)C)[C@@H](O[Si](C)(C)C(C)(C)C)[C@H]3O[Si](C)(C)C(C)(C)C)c2=O)cc1 (stereo in doubt) [Example 3, tert-Butyl (5R,12S)-12-[(S)-[(3R,4R,5R)-3,4-bis{[tert-butyl(dimethyl)silyl]oxy}-5-(3-(4-methoxybenzyl)-2,4-dioxo-3,4-dihydro-1(2H)-pyrimidinyl)tetrahydro-2-furanyl](hydroxy)methyl]-5-[(1S)-1-hydroxy-2-methylpropyl]-3,6-dioxo-1-phenyl-2-oxa-4,7,11-triazatridecan-13-oate]																					MIC [1]: > 128 µg/mL; MIC [2]: 128 µg/mL (≈ 123 µM); MIC [3]: > 128 µg/mL; MIC [4]: > 128 µg/mL; MIC [5]: 128 µg/mL (≈ 123 µM); MIC [6]: 128 µg/mL (≈ 123 µM); MIC [7]: > 128 µg/mL; MIC [8]: > 128 µg/mL; MIC [9]: 128 µg/mL (≈ 123 µM); MIC [10]: > 128 µg/mL; MIC [11]: > 128 µg/mL; MIC [12]: 128 µg/mL (≈ 123 µM); MIC [13]: 128 µg/mL (≈ 123 µM); MIC [14]: 128 µg/mL (≈ 123 µM); MIC [15]: > 128 µg/mL; MIC [16]: > 128 µg/mL; MIC [17]: > 128 µg/mL; MIC [18]: > 128 µg/mL; MIC [19]: > 128 µg/mL; MIC [20]: 128 µg/mL (≈ 123 µM)
COc1ccc(Cn2c(=O)ccn([C@@H]3OC(C(O)[C@H](NCCCNC(=O)[C@@H](N)CC(=O)O)C(=O)OC(C)(C)C)[C@@H](O[Si](C)(C)C(C)(C)C)[C@H]3O[Si](C)(C)C(C)(C)C)c2=O)cc1 (stereo in doubt) [Example 17, (3S)-3-Amino-4-[(3-{[(1S,2S)-2-[(3R,4R,5R)-3,4-bis{[tert-butyl(dimethyl)silyl]oxy}-5-(3-(4-methoxybenzyl)-2,4-dioxo-3,4-dihydro-1(2H)-pyrimidinyl)tetrahydro-2-furanyl]-1-(tert-butoxycarbonyl)-2-hydroxyethyl]amino}propyl)amino]-4-oxobutanoic acid]	> 128 µg/mL	> 128 µg/mL	> 128 µg/mL	> 128 µg/mL	> 128 µg/mL	> 128 µg/mL	> 128 µg/mL	> 128 µg/mL	> 128 µg/mL	> 128 µg/mL	64 µg/mL (≈ 71.6 µM)	> 128 µg/mL	4 µg/mL (≈ 4.47 µM)	16 µg/mL (≈ 17.9 µM)	32 µg/mL (≈ 35.8 µM)	128 µg/mL (≈ 143 µM)	32 µg/mL (≈ 35.8 µM)	128 µg/mL (≈ 143 µM)	> 128 µg/mL	> 128 µg/mL	
COc1ccc(Cn2c(=O)ccn([C@@H]3OC([C@H](O)[C@H](NCCCNC(=O)[C@@H](NC(=O)OCc4ccccc4)C(C)O)C(=O)O)[C@@H](O)C3O[Si](C)(C)C(C)(C)C)c2=O)cc1 (stereo in doubt) [Example 46, (5S,12S)-12-[(R)-[(3R,4R,5R)-4-{[tert-butyl(dimethyl)silyl]oxy}-3-hydroxy-5-(3-(4-methoxy-benzyl)-2,4-dioxo-3,4-dihydro-1(2H)-pyrimidinyl)tetrahydro-2-furanyl](hydroxy)methyl]-5-[(1S)-1-hydroxyethyl]-3,6-dioxo-1-phenyl-2-oxa-4,7,11-triazatridecan-13-oic acid]	> 128 µg/mL	128 µg/mL (≈ 152 µM)	> 128 µg/mL	> 128 µg/mL	128 µg/mL (≈ 152 µM)	128 µg/mL (≈ 152 µM)	> 128 µg/mL	> 128 µg/mL	128 µg/mL (≈ 152 µM)	> 128 µg/mL	> 128 µg/mL	> 128 µg/mL	128 µg/mL (≈ 152 µM)	128 µg/mL (≈ 152 µM)	128 µg/mL (≈ 152 µM)	> 128 µg/mL	> 128 µg/mL	> 128 µg/mL	> 128 µg/mL	128 µg/mL (≈ 152 µM)	
CCCCCCCCCCCCCC(=O)OC(C)[C@H](NC(=O)OCc1ccccc1)C(=O)NCCCNC(C(=O)OCC)C(O)C1O[C@@H](n2ccc(=O)[nH]c2=O)[C@H](OC(C)=O)[C@@H]1OC(C)=O (stereo in doubt) [Example 58, Ethyl (5S)-12-[(R)-[(2R,3R,4R,5R)-3,4-bis(acetyloxy)-5-(2,4-dioxo-3,4-dihydropyrimidin-1(2 h)-yl)tetrahydrofuran-2-yl](hydroxy)methyl]-3,6-dioxo-1-phenyl-5-[(1S)-1-(tetradecanoyloxy)ethyl]-2-oxa-4,7,11-triazatridecan-13-oate]	> 128 µg/mL	> 128 µg/mL	> 128 µg/mL	> 128 µg/mL	> 128 µg/mL	> 128 µg/mL	> 128 µg/mL	> 128 µg/mL	> 128 µg/mL	> 128 µg/mL	> 128 µg/mL	> 128 µg/mL	> 128 µg/mL	> 128 µg/mL	> 128 µg/mL	> 128 µg/mL	> 128 µg/mL	> 128 µg/mL	> 128 µg/mL	> 128 µg/mL	
COc1ccc(Cn2c(=O)ccn([C@@H]3OC([C@H](O)[C@H](NCCCNC(=O)[C@@H](NC(=O)OCc4ccccc4)[C@@H](O)C(C)C)C(=O)OC(C)(C)C)[C@@H](O[Si](C)(C)C(C)(C)C)[C@H]3O[Si](C)(C)C(C)(C)C)c2=O)cc1 (stereo partly drawn) [Example 1, tert-Butyl (5S,12S)-12-[(R)-[(3R,4R,5R)-3,4-bis{[tert-butyl(dimethyl)silyl]oxy}-5-(3-(4-methoxybenzyl)-2,4-dioxo-3,4-dihydro-1(2H)-pyrimidinyl)tetrahydro-2-furanyl](hydroxy)methyl]-5-[(1S)-1-hydroxy-2-methylpropyl]-3,6-dioxo-1-phenyl-2-oxa-4,7,11-triazatridecan-13-oate]																					MIC [1]: > 128 µg/mL; MIC [2]: > 128 µg/mL; MIC [3]: > 128 µg/mL; MIC [4]: > 128 µg/mL; MIC [5]: > 128 µg/mL; MIC [6]: > 128 µg/mL; MIC [7]: > 128 µg/mL; MIC [8]: > 128 µg/mL; MIC [9]: 128 µg/mL (≈ 123 µM); MIC [10]: > 128 µg/mL; MIC [11]: > 128 µg/mL; MIC [12]: > 128 µg/mL; MIC [13]: 128 µg/mL (≈ 123 µM); MIC [14]: 128 µg/mL (≈ 123 µM); MIC [15]: > 128 µg/mL; MIC [16]: > 128 µg/mL; MIC [17]: > 128 µg/mL; MIC [18]: > 128 µg/mL; MIC [19]: > 128 µg/mL; MIC [20]: 128 µg/mL (≈ 123 µM)
COc1ccc(Cn2c(=O)ccn([C@@H]3OC([C@H](O)[C@H](NCCCNC(=O)[C@@H](N)[C@@H](O)C(C)C)C(=O)OC(C)(C)C)[C@@H](O[Si](C)(C)C(C)(C)C)[C@H]3O[Si](C)(C)C(C)(C)C)c2=O)cc1 (stereo partly drawn) [Example 2, tert-Butyl (2S,3R)-2-[(3-{[(2S,3S)-2-amino-3-hydroxy-4-methylpentanoyl]amino}propyl)amino]-3-[(3R,4R,5R)-3,4-bis{[tert-butyl(dimethyl)silyl]oxy}-5-(3-(4-methoxybenzyl)-2,4-dioxo-3,4-dihydro-1(2H)-pyrimidinyl)tetrahydro-2-furanyl]-3-hydroxypropanoate]	> 128 µg/mL	> 128 µg/mL	> 128 µg/mL	> 128 µg/mL	> 128 µg/mL	> 128 µg/mL	> 128 µg/mL	> 128 µg/mL	> 128 µg/mL	4 µg/mL (≈ 4.4 µM)	4 µg/mL (≈ 4.4 µM)	16 µg/mL (≈ 17.6 µM)	4 µg/mL (≈ 4.4 µM)	4 µg/mL (≈ 4.4 µM)	8 µg/mL (≈ 8.81 µM)	4 µg/mL (≈ 4.4 µM)	4 µg/mL (≈ 4.4 µM)	16 µg/mL (≈ 17.6 µM)	> 128 µg/mL	> 128 µg/mL	
